Test system: B16 cells gene expression
Test: RNA-Seq (DEGs, GSEA, heatmaps) of B16 cells
Details: B16 cells

## COc1cc(N)cc2c1nc(C(F)F)n2-c1nc(N2CCCOCC2)nc(N2CCOCC2)n1 [KTC1101, 2-(difluoromethyl)-4-methoxy-1-(4-morpholino-6-(1,4-oxazepan-4-yl)-1,3,5-triazin-2-yl)-1H-benzo[d]imidazol-6-amine]
KTC1101 0.2μM, GSEA KEGG
  enrichmentScore, mmu04211 Longevity regulating pathway: 0.2589
  enrichmentScore, mmu04213 Longevity regulating pathway - multiple species: 0.2778
  enrichmentScore, mmu04215 Apoptosis - multiple species: 0.3327
  enrichmentScore, mmu04216 Ferroptosis: -0.2787
  enrichmentScore, mmu04217 Necroptosis: -0.2455
  enrichmentScore, mmu04270 Vascular smooth muscle contraction: 0.2845
  enrichmentScore, mmu04360 Axon guidance: 0.2929
  enrichmentScore, mmu04392 Hippo signaling pathway - multiple species: 0.3945
  enrichmentScore, mmu04514 Cell adhesion molecules: 0.3446
  enrichmentScore, mmu04520 Adherens junction: 0.258
  enrichmentScore, mmu04530 Tight junction: -0.1527
  enrichmentScore, mmu04550 Signaling pathways regulating pluripotency of stem cells: 0.3252
  enrichmentScore, mmu04611 Platelet activation: 0.2724
  enrichmentScore, mmu04612 Antigen processing and presentation: 0.2974
  enrichmentScore, mmu04622 RIG-I-like receptor signaling pathway: 0.2627
  enrichmentScore, mmu04623 Cytosolic DNA-sensing pathway: 0.3684
  enrichmentScore, mmu04650 Natural killer cell mediated cytotoxicity: 0.2671
  enrichmentScore, mmu04658 Th1 and Th2 cell differentiation: 0.359
  enrichmentScore, mmu04660 T cell receptor signaling pathway: 0.174
  enrichmentScore, mmu04662 B cell receptor signaling pathway: 0.2749
  enrichmentScore, mmu04666 Fc gamma R-mediated phagocytosis: -0.2944
  enrichmentScore, mmu04670 Leukocyte transendothelial migration: 0.2117
  enrichmentScore, mmu04714 Thermogenesis: -0.2154
  enrichmentScore, mmu04720 Long-term potentiation: 0.2329
  enrichmentScore, mmu04723 Retrograde endocannabinoid signaling: 0.2816
  enrichmentScore, mmu04726 Serotonergic synapse: 0.3744
  enrichmentScore, mmu04727 GABAergic synapse: 0.3552
  enrichmentScore, mmu04728 Dopaminergic synapse: 0.2754
  enrichmentScore, mmu04730 Long-term depression: 0.3483
  enrichmentScore, mmu04750 Inflammatory mediator regulation of TRP channels: 0.2734
  enrichmentScore, mmu04910 Insulin signaling pathway: 0.2919
  enrichmentScore, mmu04912 GnRH signaling pathway: 0.3311
  enrichmentScore, mmu04915 Estrogen signaling pathway: 0.2687
  enrichmentScore, mmu04916 Melanogenesis: 0.2873
  enrichmentScore, mmu04917 Prolactin signaling pathway: 0.2949
  enrichmentScore, mmu04920 Adipocytokine signaling pathway: 0.3361
  enrichmentScore, mmu04929 GnRH secretion: -0.3021
  enrichmentScore, mmu04930 Type II diabetes mellitus: 0.385
  enrichmentScore, mmu04932 Non-alcoholic fatty liver disease: -0.2292
  enrichmentScore, mmu04934 Cushing syndrome: 0.2719
  enrichmentScore, mmu04936 Alcoholic liver disease: 0.2103
  enrichmentScore, mmu04960 Aldosterone-regulated sodium reabsorption: 0.4243
  enrichmentScore, mmu04961 Endocrine and other factor-regulated calcium reabsorption: 0.3281
  enrichmentScore, mmu04962 Vasopressin-regulated water reabsorption: 0.3811
  enrichmentScore, mmu04970 Salivary secretion: 0.3709
  enrichmentScore, mmu04972 Pancreatic secretion: 0.3054
  enrichmentScore, mmu05017 Spinocerebellar ataxia: -0.2487
  enrichmentScore, mmu05031 Amphetamine addiction: 0.3398
  enrichmentScore, mmu05034 Alcoholism: 0.2877
  enrichmentScore, mmu05100 Bacterial invasion of epithelial cells: 0.1912
  enrichmentScore, mmu05132 Salmonella infection: -0.223
  enrichmentScore, mmu05133 Pertussis: 0.2038
  enrichmentScore, mmu05134 Legionellosis: 0.3271
  enrichmentScore, mmu05135 Yersinia infection: 0.1452
  enrichmentScore, mmu05145 Toxoplasmosis: 0.3104
  enrichmentScore, mmu05160 Hepatitis C: -0.1925
  enrichmentScore, mmu05162 Measles: 0.3001
  enrichmentScore, mmu05165 Human papillomavirus infection: 0.2105
  enrichmentScore, mmu05170 Human immunodeficiency virus 1 infection: 0.2282
  enrichmentScore, mmu05200 Pathways in cancer: 0.2563
  enrichmentScore, mmu05203 Viral carcinogenesis: 0.2271
  enrichmentScore, mmu05204 Chemical carcinogenesis - DNA adducts: -0.3876
  enrichmentScore, mmu05206 MicroRNAs in cancer: 0.2735
  enrichmentScore, mmu05207 Chemical carcinogenesis - receptor activation: 0.2555
  enrichmentScore, mmu05210 Colorectal cancer: 0.2135
  enrichmentScore, mmu05211 Renal cell carcinoma: -0.2497
  enrichmentScore, mmu05212 Pancreatic cancer: -0.2279
  enrichmentScore, mmu05213 Endometrial cancer: -0.2692
  enrichmentScore, mmu05214 Glioma: 0.2912
  enrichmentScore, mmu05216 Thyroid cancer: 0.217
  enrichmentScore, mmu05218 Melanoma: 0.3678
  enrichmentScore, mmu05219 Bladder cancer: 0.2813
  enrichmentScore, mmu05220 Chronic myeloid leukemia: 0.2762
  enrichmentScore, mmu05223 Non-small cell lung cancer: -0.2111
  enrichmentScore, mmu05231 Choline metabolism in cancer: 0.3293
  enrichmentScore, mmu05235 PD-L1 expression and PD-1 checkpoint pathway in cancer: 0.291
  enrichmentScore, mmu05412 Arrhythmogenic right ventricular cardiomyopathy: 0.3444
  enrichmentScore, mmu05416 Viral myocarditis: 0.3314
  enrichmentScore, mmu05417 Lipid and atherosclerosis: 0.3016
[…], KTC 0.2μM
  NES: Coronavirus disease - COVID-19: 2.023
  enrichmentScore: Coronavirus disease - COVID-19: 0.5276
